This note sets out measurements from patent publication US20230233606A1, “Cell” (AUTOLUS LIMITED, priority 2019, published 2023).

Common to all, as to assay type: cell-based
For data set [1], the system named is SupT1 CD22 High. Nature of the data set: IFN-γ release with increasing concentrations of 3-IB-PP1, Example 5. Conditions: 3-IB-PP1 0.156 uM-10 uM, T cells expressing CSK^AS, E:T 1:4, 72 h. As for the experimental part:
(§1) Analysis by flow cytometry was carried out at 72 h post co-culture set up. Each condition was tested with a minimum of 3 donors (n=3), with median indicated. All data was normalised to NT T cells. T cells were co-cultured with SupT1 NT (left) or SupT1 CD22 High (right) target cells at an E:T ratio of 1:4.
(§2) The co-culture described in Example 4 was repeated, but this time with increasing concentrations of 3-IB-PP1 (0.156 uM-10 uM).

The test system of data set [2] is SupT1 CD22 High. Description: FBK assay with increasing concentrations of 3-IB-PP1, Example 5. Conditions: 3-IB-PP1 0.156 uM-10 uM; T cells expressing CSK^AS; CD22 High (6,309 molecules per cell); E:T 1:4; 72 h. As for the experimental part:
as §1, §2

The test system of data set [3] is SupT1 CD22 High. Nature of the data set: IL-2 release ELISA, Example 4, SupT1 CD22 High. As to conditions: 3-IB-PP1 10 uM, CSK^AS expressing T cells, E:T 1:4, 72 h. As for the experimental part:
(§3) Supernatant taken at 72 h post co-culture set up was analysed by ELISA for the presence of IL-2. Each condition was tested with a minimum of 6 donors (n=6), with median indicated. T cells were co-cultured with SupT1 NT (left), SupT1 CD22 High (middle) or SupT1 CD22 Low (right) target cells at an E:T ratio of 1:4.
(§4) In order to investigate cytokine release, supernatant was taken at 72 h post co-culture set up and analysed by ELISA for the presence of IL-2 and IFN-γ.
Background: An ELISA detects its analyte on a solid surface through an enzyme-linked reagent.

In data set [4] the test system is SupT1 CD22 Low. Nature of the data set: FBK assay with or without 3-IB-PP1, Example 4, SupT1 CD22 Low. As to conditions: 3-IB-PP1 10 uM; T cells expressing CSK^AS; CD22 Low (3,309 molecules per cell); E:T 1:4; 72 h. The protocol:
(§5) Analysis by flow cytometry was carried out at 72 h post co-culture set up. Each condition was tested with a minimum of 6 donors (n=6), with median indicated. All data was normalised to NT T cells. T cells were co-cultured with SupT1 NT (left), SupT1 CD22 High (middle) or SupT1 CD22 Low (right) target cells at an E:T ratio of 1:4. Statistics were run using a paired t-test. *P<0.05, **P<0.01, ***P<0.001, ****P<0.0001.
(§6) PBMCs were either left untransduced or transduced with one of the constructs. The capacity of the CAR-T cells to kill target cells expressing CD22 was investigated using a FACS-based killing (FBK) assay. […] Two different types of CD22-expressing SupT1 target cells were generated, one expressing CD22 at a low density (average number of CD22 molecules per cell: 3,309) and one expressing CD22 at a high density (average number of CD22 molecules per cell: 20,262).

Data set [5] concerns SupT1 CD22 High. Description: IFN-γ release ELISA, Example 4, SupT1 CD22 High. As to conditions: 3-IB-PP1 10 uM, T cells expressing CSK^AS, E:T 1:4, 72 h. As for the experimental part: (§7) Supernatant taken at 72 h post co-culture set up was analysed by ELISA for the presence of IFN-γ. Each condition was tested with a minimum of 6 donors (n=6), with median indicated. T cells were co-cultured with SupT1 NT (left), SupT1 CD22 High (middle) or SupT1 CD22 Low (right) target cells at an E:T ratio of 1:4.
as §4

Data set [6] deals with SupT1 CD22 High. Description: FBK assay with or without 3-IB-PP1, Example 4, SupT1 CD22 High. As to conditions: 3-IB-PP1 10 uM; T cells expressing CSK^AS; CD22 High (20,262 molecules per cell); E:T 1:4; 72 h. As for the experimental part: as §5, §6
Data set [7] relates to SupT1 CD22 Low. Nature of the data set: IFN-γ release ELISA, Example 4, SupT1 CD22 Low. Conditions: 3-IB-PP1 10 uM, T cells expressing CSK^AS, E:T 1:4, 72 h. The protocol: as §7, §4
In data set [8] the test system is SupT1 CD22 Low. Description: IL-2 release ELISA, Example 4, SupT1 CD22 Low. Conditions: 3-IB-PP1 10 uM, CSK^AS expressing T cells, E:T 1:4, 72 h. As for the experimental part:
as §3, §4

Take `CC(C)(C)n1nc(Cc2cccc(I)c2)c2c(N)ncnc21` [3-IB-PP1, 3-iodo-benzyl-PP1]: the IFN-γ production result in data set [1] is recorded as “increased in a dose-dependent manner”. The cytotoxicity result in data set [2] is “increased in a dose-dependent manner”; in data set [4] it was “significantly increased compared to the media condition”; in data set [6] it was “significantly increased compared to the media condition”. The IL-2 release entry in data set [3] and in data set [8] was “increased levels of IL-2” each time. Also, the IFN-γ release result in data set [5] and in data set [7] was “significantly higher IFN-γ concentrations compared to the media condition” in each case.
